Assay results published in patent publication EP3315495A1, “N,N' -[…], N,N' -DIAR[…] N,N' -DIARY[…] FOR USE IN TREATMENT AND PREVENTION OF INFLAMMATORY DISEASE” (Universität Innsbruck, priority 2016, dated 2018).
Read-outs that look alike come from different tables or passages of the source. Marks after values point to notes of the source that are not given here.

Key:
[1] = system: 5-LOX product formation in PMNL; experiment: 5-LOX product formation in PMNL stimulated with A23187 (cell-based); design: species or system human; conditions: for inhibition at 10 µM: read-out: Effect on 5-LOX product formation in PMNL, % inhibition
Description: Briefly, first a cell-based assay allows to determine the inhibition of the 5-LOX product biosynthesis. The cell suspension contained human neutrophils (PMNL) or monocytes, wherein the cells were isolated from buffy coats obtained from healthy donors pooled by gender. An aliquot cell suspension was incubated with the candidate compound for 15 min at 37 °C. The cells are treated with calcium ionophore A23187 to stimulate 5-LOX product formation for further 10 min (37 °C), optionally in presence of various concentrations of AA. The reaction was stopped with 1 mL methanol on ice.
(§1) In both assays, product quantification was conducted with RP-HPLC and UV detection after solid phase extraction and addition of 200 ng prostaglandin B1 as internal standard.

12-LOX = type: cell-based; conditions: neutrophils, exogenous AA 10, 30 or 60 µM
From the text: (§2) […]. […] This could be beneficial as the 15-LOX product 15-HETE is anti-inflammatory.

15-LOX = type: cell-based; conditions: neutrophils
From the text: as §2

COX-1 = COX-1 (Homo sapiens, UniProt P23219); experiment: COX-1 activity; type: biochemical; conditions: concentrations up to 10 µM
COX-1, sequence (P23219 24-599): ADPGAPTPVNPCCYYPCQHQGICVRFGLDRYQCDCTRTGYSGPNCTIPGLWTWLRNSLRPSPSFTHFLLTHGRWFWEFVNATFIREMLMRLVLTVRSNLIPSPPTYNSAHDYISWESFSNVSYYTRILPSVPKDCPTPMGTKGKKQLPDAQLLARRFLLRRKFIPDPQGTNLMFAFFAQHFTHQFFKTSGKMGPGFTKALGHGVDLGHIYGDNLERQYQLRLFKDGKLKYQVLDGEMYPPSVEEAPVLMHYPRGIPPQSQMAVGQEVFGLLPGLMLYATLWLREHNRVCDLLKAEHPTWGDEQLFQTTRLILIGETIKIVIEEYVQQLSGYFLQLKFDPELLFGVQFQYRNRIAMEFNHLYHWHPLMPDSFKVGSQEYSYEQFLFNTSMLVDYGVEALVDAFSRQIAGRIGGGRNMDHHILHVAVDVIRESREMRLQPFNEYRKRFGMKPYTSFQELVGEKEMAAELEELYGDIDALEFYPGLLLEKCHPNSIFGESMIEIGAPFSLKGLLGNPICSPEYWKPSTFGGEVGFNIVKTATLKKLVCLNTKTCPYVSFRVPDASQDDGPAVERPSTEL

COX-2 = target: T1, COX-2 (Homo sapiens, UniProt P35354); experiment: COX-2 activity; type: biochemical; conditions: concentrations up to 10 µM
T1 sequence (P35354 18-604): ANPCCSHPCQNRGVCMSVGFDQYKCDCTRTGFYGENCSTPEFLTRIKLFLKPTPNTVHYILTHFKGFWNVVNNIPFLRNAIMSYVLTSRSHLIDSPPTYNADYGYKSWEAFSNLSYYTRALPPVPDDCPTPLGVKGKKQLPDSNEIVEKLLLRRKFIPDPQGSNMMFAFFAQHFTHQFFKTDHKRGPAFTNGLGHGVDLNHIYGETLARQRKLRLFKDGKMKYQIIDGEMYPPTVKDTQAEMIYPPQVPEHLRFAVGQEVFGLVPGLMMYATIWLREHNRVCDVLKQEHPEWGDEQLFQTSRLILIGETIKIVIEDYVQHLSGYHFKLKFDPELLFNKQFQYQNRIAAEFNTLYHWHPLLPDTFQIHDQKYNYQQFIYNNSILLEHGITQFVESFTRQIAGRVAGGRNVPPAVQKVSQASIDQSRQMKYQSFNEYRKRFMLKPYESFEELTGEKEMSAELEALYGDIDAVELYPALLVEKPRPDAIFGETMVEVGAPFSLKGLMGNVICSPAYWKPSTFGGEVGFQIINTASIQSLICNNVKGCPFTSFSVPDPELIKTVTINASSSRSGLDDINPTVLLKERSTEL

mPGES = mPGES activity; type: biochemical; conditions: concentrations up to 10 µM
[2] = system: leukotriene mediated peritonitis; experiment: Zymosan-induced peritonitis model in mice; type: in vivo, CD1 male mice; conditions: intraperitoneal, 30 min prior to zymosan
Description: Compound I-12 was evaluated in vivo in a peritonitis model in mice. The experimental protocols were approved by the Animal Care Committee of the University of Naples Federico II, in compliance with Italian regulations on protection of animals used for experimental and other scientific purpose (Ministerial Decree 116/92) as well as with the European Economic Community regulations (Official Journal of E.C. L 358/1 12/18/1986); protocol number: 2014/0018760 27th February 2014. CD1 male mice with an age of six to eight weeks were investigated. The leukotriene mediated peritonitis is induced by injection of 1 mg zymosan in 50 µl saline solution. 30 min prior to induction, the candidate compound was applied as intraperitoneal injection in different concentrations as well as DMSO as negative control and positive controls (MK886, zileuton). Results are given in Table 3, wherein […] and LTB 4 levels are measured as well as vascular permeability (VP) and the cell recruitment in the peritoneal cavity (Cell Rec). Table 3: Results from an in vivo study with a mouse peritonitis model
In Table 3, values in percent indicate the percent inhibition in respect to the vehicle control. Statistical significance is determined via ANOVA Bonferroni, wherein * indicates p<0.05; ** indicates p<0.01; *** indicates p<0.001 vs. vehicle. N indicates the number of investigated mice.

HEK cells with FLAP = experiment: 5-LOX product formation in HEK cells that express FLAP
isolated 5-LOX = target: T2, isolated 5-LOX (Homo sapiens, UniProt P09917); experiment: FLAP-independent cell-free enzymatic assay with isolated recombinant 5-LOX; type: biochemical; conditions: for inhibition at 10 µM: read-out: Effect on isolated 5-LOX, % inhibition
T2 construct: made in house; host or cells: E. coli
T2 sequence (P09917 1-674): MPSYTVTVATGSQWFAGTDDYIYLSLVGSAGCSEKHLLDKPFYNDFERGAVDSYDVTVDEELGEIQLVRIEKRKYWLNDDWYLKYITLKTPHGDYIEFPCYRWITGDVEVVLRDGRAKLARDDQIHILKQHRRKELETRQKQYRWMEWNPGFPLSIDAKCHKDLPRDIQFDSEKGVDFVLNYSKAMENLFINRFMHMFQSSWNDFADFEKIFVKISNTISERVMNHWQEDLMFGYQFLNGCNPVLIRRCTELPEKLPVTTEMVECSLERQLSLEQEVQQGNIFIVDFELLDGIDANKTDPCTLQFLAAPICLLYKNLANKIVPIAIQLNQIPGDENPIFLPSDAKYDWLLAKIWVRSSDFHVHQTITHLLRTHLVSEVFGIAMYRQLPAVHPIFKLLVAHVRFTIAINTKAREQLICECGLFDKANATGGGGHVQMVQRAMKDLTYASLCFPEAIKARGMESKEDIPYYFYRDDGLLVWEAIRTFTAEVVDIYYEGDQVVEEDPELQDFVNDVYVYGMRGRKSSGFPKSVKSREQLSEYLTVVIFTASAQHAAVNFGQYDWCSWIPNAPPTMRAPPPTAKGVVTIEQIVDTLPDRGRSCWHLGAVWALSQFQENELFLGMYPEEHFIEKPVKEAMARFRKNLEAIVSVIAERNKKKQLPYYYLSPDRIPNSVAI
Description: as §1

FLAP = target: T3, FLAP (Homo sapiens, UniProt P20292); conditions: active = inhibition of product formation in cells without 5-LOX activity in the cell-free assay
T3 sequence (P20292 1-161): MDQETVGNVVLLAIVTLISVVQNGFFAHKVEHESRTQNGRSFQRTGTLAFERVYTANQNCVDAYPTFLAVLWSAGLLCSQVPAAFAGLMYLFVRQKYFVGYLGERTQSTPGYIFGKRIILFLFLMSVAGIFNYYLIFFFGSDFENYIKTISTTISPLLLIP
Description: The enzyme was preincubated for 15 min with the potential inhibitor on ice and subsequently exposed to 2 mM CaCl2 and 20 µM AA for 10 min at 37°C.
Effect on 5-LOX product formation and sEH activity is determined as described above. In case of observed effect on 5-LOX product formation in the cellular assay, 5-LOX activity was investigated with isolated 5-LOX.

sEH [3] = target: T4, sEH (Homo sapiens, UniProt P34913); experiment: biochemical; conditions: read-out: Effect on sEH activity, % inhibition
T4 sequence (P34913 1-555): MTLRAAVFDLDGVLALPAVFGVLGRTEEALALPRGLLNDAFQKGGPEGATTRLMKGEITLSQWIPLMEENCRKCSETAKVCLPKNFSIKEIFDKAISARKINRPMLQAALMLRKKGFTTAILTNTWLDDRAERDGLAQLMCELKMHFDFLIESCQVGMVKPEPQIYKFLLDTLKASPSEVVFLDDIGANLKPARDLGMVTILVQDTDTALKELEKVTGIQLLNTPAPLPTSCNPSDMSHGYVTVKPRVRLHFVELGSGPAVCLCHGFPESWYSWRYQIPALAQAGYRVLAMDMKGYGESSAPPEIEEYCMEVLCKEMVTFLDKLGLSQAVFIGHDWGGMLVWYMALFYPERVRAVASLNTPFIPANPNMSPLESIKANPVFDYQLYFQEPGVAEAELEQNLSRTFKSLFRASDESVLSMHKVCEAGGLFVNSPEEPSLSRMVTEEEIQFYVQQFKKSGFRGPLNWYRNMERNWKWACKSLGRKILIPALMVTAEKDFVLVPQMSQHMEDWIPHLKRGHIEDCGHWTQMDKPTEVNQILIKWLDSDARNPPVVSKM
Description: (§3) In brief, sEH was expressed in transfected Sf9-cells. Isolation of sEH from the cell pellet was conducted with a benzylthiosepharose matrix. […] The reaction was stopped with ZnSO4 (0.2 M) after 60 min incubation. […] Inhibitors were tested for self fluorescence. Positive controls were AUDA (12-(3-adamantan-1-yl-ureido)dodecanacid) and DCU (N,N'-dicyclohexylurea) at 10 µM.

sEH [4] = target: T4, sEH; conditions: at 0.1 µM
Description: as §3

[5] = Homo sapiens, PMNL, read-out: Effect on 5-LOX product formation in PMNL, IC50

For `Cc1cc(OCc2nc3ccccc3s2)ccc1NC(=O)Nc1ccc(Cl)c(Cl)c1` [Compound I-12, N-[4-(2-benzothiazolylmethoxy)-2-methylphenyl]-N'-(3,4-dichlorophenyl)-urea], the IC50 ([1]; Homo sapiens, PMNL, male PMNL cells, Exogenous AA 3 µM, read-out: IC50 values for 5-LOX product formation) was 0.38 µM, the IC50 ([1]; Homo sapiens, PMNL, male PMNL cells, Exogenous AA 10 µM, read-out: IC50 values for 5-LOX product formation) was 1.6 µM and the IC50 ([1]; Homo sapiens, PMNL, male PMNL cells, Exogenous AA 30 µM, read-out: IC50 values for 5-LOX product formation) was 2.1 µM. The IC50 ([1]; Homo sapiens, PMNL, male PMNL cells, Exogenous AA 60 µM, read-out: IC50 values for 5-LOX product formation) was 9.1 µM, the IC50 [1, 5] was 0.24 µM and the “product formation of 12-LOX” value (12-LOX) was “did not inhibit”. For the same compound, the “product formation of 15-LOX (15-HETE)” value (15-LOX; 10 µM AA) was “increase of the product formation”, the “product formation of 15-LOX” value (15-LOX; exogenous AA 10, 30 or 60 µM) was “did not inhibit” and the COX-1 activity (COX-1) was “not affected”. For the same compound, the COX-2 activity (COX-2) was “not affected”, the mPGES (mPGES) was “not affected” and the “Cell Rec (cell recruitment in the peritoneal cavity)” value ([2]; 1 mg) was 5.93±0.321 10^6/ml. The “Cell Rec, percent inhibition in respect to the vehicle control” value (shortened to “Cell Rec, percent inhibition”) ([2]; 1 mg) was 22%, the LTB4 ([2]; 1 mg) was 280 ± 42.8 pg/mL and the “LTB4, percent inhibition in respect to the vehicle control” value (from here on “LTB4, percent inhibition”) ([2]; 1 mg) was 59%**. The LTC4 ([2]; 1 mg) was 26.0 ± 9.47 ng/mL, the “LTC4, percent inhibition in respect to the vehicle control” value (“LTC4, percent inhibition” for short) ([2]; 1 mg) was 70%*** and the “Cell Rec (cell recruitment in the peritoneal cavity)” value ([2]; 3 mg) was 4.4±0.509 10^6/ml. For the same compound, the “Cell Rec, percent inhibition” value ([2]; 3 mg) was 42%***, the LTB4 ([2]; 3 mg) was 345 ± 69.2 pg/mL and the “LTB4, percent inhibition” value ([2]; 3 mg) was 50%*. The LTC4 ([2]; 3 mg) was 30.5 ± 10.3 ng/mL, the “LTC4, percent inhibition” value ([2]; 3 mg) was 66%*** and the “Cell Rec (cell recruitment in the peritoneal cavity)” value ([2]; 10 mg) was 3.36±0.439 10^6/ml. For the same compound, the “Cell Rec, percent inhibition” value ([2]; 10 mg) was 56%***, the LTB4 ([2]; 10 mg) was 193 ± 34.4 pg/mL and the “LTB4, percent inhibition” value ([2]; 10 mg) was 72%***. The LTC4 ([2]; 10 mg) was 25.8 ± 2.66 ng/mL, the “LTC4, percent inhibition” value ([2]; 10 mg) was 70%*** and the “VP (vascular permeability)” value ([2]; 10 mg) was 0.347±0.09 abs 610 nm. The “VP, percent inhibition in respect to the vehicle control” value ([2]; 10 mg) was 38%, the “effect on 5-LOX product formation” value (HEK cells without FLAP) was “nearly no effect” and the “effect on 5-LOX product formation” value (HEK cells with FLAP) was “inhibits the product formation”.

For `Cc1cc(OCc2nc3ccccc3n2C(=O)OC(C)(C)C)ccc1NC(=S)Nc1ccc(Cl)c(Cl)c1` [EZ15, N-[4-(1-tert.-Butoxycarbonyl-1H-benzimidazol-2-ylmethoxy)-2-methylphenyl]-N'-(3,4-dichlorophenyl)-thiourea], the inhibition at 10 µM ([1]; Homo sapiens, PMNL, at 10 µM) was about 39%, the inhibition at 10 µM (isolated 5-LOX; at 10 µM) was about 33% and the “Effect on FLAP activity” value (FLAP) was “inactive”. It also gave an inhibition at 10 µM (sEH [3]) of about 66%.

For `Cc1cc(OCc2nc3ccccc3[nH]2)ccc1NC(=S)Nc1ccc(Cl)c(Cl)c1` [EZ17, N-[4-(1H-Benzimidazol-2ylmethoxy)-2-methylphenyl]-N'-(3,4-dichlorophenyl)-thiourea], the IC50 [1, 5] was 0.82 µM, the inhibition at 10 µM (isolated 5-LOX; at 10 µM) was 65% and the “Effect on FLAP activity” value (FLAP) was “active”. For the same compound, the inhibition at 10 µM (sEH [3]) was about 64%.

For `CC(C)(C)OC(=O)n1c(COc2ccc(NC(=O)Nc3ccc(Cl)c(Cl)c3)cc2)nc2ccccc21` [EZ18, N-[4-(1-tert.-Butoxycarbonyl-1H-benzimidazol-2-ylmethoxy)-phenyl]-N'-(3,4-dichlorophenyl)-urea], the inhibition at 10 µM ([1]; Homo sapiens, PMNL, at 10 µM) was about 40%, the inhibition at 10 µM (isolated 5-LOX; at 10 µM) was about 22% and the inhibition at 0.1 µM (sEH [3]) was about 67%.

In the case of `O=C(Nc1ccc(OCc2nc3ccccc3[nH]2)cc1)Nc1ccc(Cl)c(Cl)c1` [EZ19, N-[4-(1-H-Benzimidazol-2-ylmethoxy)-phenyl]-N'-(3,4-dichlorophenyl)-urea], the IC50 ([1]; read-out: Effect on 5-LOX product formation in PMNL, IC50) is reported as 0.55 µM, the “Effect on isolated 5-LOX, % inhibition” value (isolated 5-LOX; at 10 µM) is reported as “∼33 % inhibitio n at 10 µM” and the “Effect on FLAP activity” value (FLAP) is reported as “active”. The “Effect on sEH activity, % inhibition” value (sEH [4]) was “∼52 % inhibition at 0.1 µM”.

In the case of `CC(C)(C)OC(=O)n1c(COc2ccc(NC(=S)Nc3ccc(Cl)c(Cl)c3)cc2)nc2ccccc21` [EZ20, N-[4-(1-tert.-Butoxycarbonyl-1H-benzimidazol-2-ylmethoxy)-phenyl]-N'-(3,4-dichlorophenyl)-thiourea], the inhibition at 10 µM ([1]; Homo sapiens, PMNL) is reported as -65%, the inhibition at 10 µM (isolated 5-LOX) is reported as about 39% and the “Effect on FLAP activity” value (FLAP) is reported as “inactive”. For the same compound, the inhibition at 0.1 µM (sEH [3]) was about 39%.

Work on `S=C(Nc1ccc(OCc2nc3ccccc3[nH]2)cc1)Nc1ccc(Cl)c(Cl)c1` [EZ21, N-[4-(1-H-Benzimidazol-2-ylmethoxy)-phenyl]-N'-(3,4-dichlorophenyl)-thiourea] yielded an IC50 [1, 5] of 0.69 µM, an inhibition at 10 µM (isolated 5-LOX; at 10 µM) of 87% and an inhibition at 10 µM (sEH [3]) of about 54%.
